Assay results from patent US5977133A, “Pyridone antibiotic with improved safety profile” (priority 1998, dated 1999).
Values after ≈ are worked out from the molar mass of the structure shown.

Legend:
Assay type in all cases: cell-based
[1] = tested on: C. difficile; experiment: In vitro MIC, agar dilution; conditions: Clostridioides difficile
[2] = tested on: S. epidermidis (CiproR); experiment: In vitro MIC, agar dilution; conditions: Staphylococcus epidermidis, S. epidermidis (CiproR), 11 isolates
[3] = tested on: P. aeruginosa (CiproR); experiment: In vitro MIC, agar dilution; conditions: Pseudomonas aeruginosa
[4] = tested on: Shigella spp.; experiment: microbe, parasite or virus in culture; conditions: read-out: MIC Range
[5] = tested on: Enterobacter spp.; experiment: In vitro MIC, agar dilution; conditions: Enterobacter
[6] = tested on: E. faecium (VanS); experiment: In vitro MIC, agar dilution; conditions: Enterococcus faecium
[7] = tested on: H. influenzae; experiment: In vitro MIC, agar dilution; conditions: Haemophilus influenzae, H. influenzae, 18 isolates
[8] = tested on: Providencia spp.; experiment: In vitro MIC, agar dilution
[9] = tested on: B. fragilis; experiment: In vitro MIC, agar dilution; conditions: Bacteroides fragilis
[10] = tested on: E. faecium (CiproS); experiment: In vitro MIC, agar dilution; conditions: Enterococcus faecium, E. faecium (CiproS), 16 isolates
[11] = tested on: Legionella spp.; experiment: microbe, parasite or virus in culture; conditions: Legionella
[12] = tested on: S. epidermidis (CiproS); experiment: In vitro MIC, agar dilution; conditions: Staphylococcus epidermidis
[13] = tested on: S. aureus (CiproS); experiment: In vitro MIC, agar dilution; conditions: Staphylococcus aureus
[14] = tested on: E. faecalis (VanS); experiment: In vitro MIC, agar dilution; conditions: Enterococcus faecalis
[15] = tested on: M. avium; experiment: In vitro MIC, agar dilution; conditions: Mycobacterium avium
[16] = tested on: S. pneumoniae (PenR); experiment: In vitro MIC, agar dilution; conditions: Streptococcus pneumoniae
[17] = tested on: E. faecium (CiproR); experiment: In vitro MIC, agar dilution; conditions: Enterococcus faecium; E. faecium (CiproR), 2 isolates; read-out: MIC Range
[18] = tested on: E. coli; experiment: In vitro MIC, agar dilution; conditions: Escherichia coli, 25 isolates
Outline: (§1)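 MIC, the lowest compound level without growth versus a drug-free BHI control plate, with faint haze or scattered colonies scored as no growth. About 10^4 CFU was replicator-spotted from 1:100 dilutions, or 1:10 for slow-growing strains, and plates were read after ~20–24 h at 35–37 °C.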

[19] = tested on: Salmonella spp.; experiment: In vitro MIC, agar dilution; conditions: 23 isolates
Outline: as §1

[20] = tested on: H. pylori; experiment: In vitro MIC, agar dilution; conditions: Helicobacter pylori
[21] = tested on: Klebsiella spp.; experiment: In vitro MIC, agar dilution
[22] = tested on: S. pneumoniae (CiproR); experiment: In vitro MIC, agar dilution; conditions: Streptococcus pneumoniae; S. pneumoniae (CiproR), 3 isolates; read-out: MIC Range
[23] = tested on: C. perfringens; experiment: microbe, parasite or virus in culture; conditions: Clostridium perfringens
[24] = tested on: P. aeruginosa (CiproS); experiment: In vitro MIC, agar dilution; conditions: Pseudomonas aeruginosa
[25] = tested on: P. mirabilis; experiment: In vitro MIC, agar dilution; conditions: Proteus mirabilis
[26] = tested on: C. freundii; experiment: In vitro MIC, agar dilution; conditions: Citrobacter freundii
[27] = tested on: Enterococcus spp. (VanR); experiment: In vitro MIC, agar dilution; conditions: Enterococcus spp. (VanR), 21 isolates
[28] = tested on: M. pneumoniae; experiment: In vitro MIC, agar dilution; conditions: Mycoplasmoides pneumoniae; M. pneumoniae, 7 isolates; read-out: MIC Range
[29] = tested on: S. aureus (CiproR); experiment: In vitro MIC, agar dilution; conditions: Staphylococcus aureus, S. aureus (CiproR), 25 isolates

SMILES: NC1CCN(c2c(F)cc3c(=O)c(C(=O)O)cn(C4CC4)c3c2Cl)C1 (stereo not drawn) [Clinafloxacin, clinafloxacin]
- MIC90 [1]: 0.25 µg/mL (≈ 0.683 µM)
- MIC ([1]; read-out: MIC Range): 0.12 to 0.25 µg/mL (≈ 0.328 to 0.683 µM)
- MIC50 ([1]; C. difficile, 10 isolates, read-out: MIC50): 0.25 µg/mL (≈ 0.683 µM)
- MIC50 ([2]; read-out: MIC50): 0.5 µg/mL (≈ 1.37 µM)
- MIC90 ([2]; read-out: MIC90): 1 µg/mL (≈ 2.73 µM)
- MIC ([2]; read-out: MIC Range): 0.25 to 2 µg/mL (≈ 0.683 to 5.47 µM)
- MIC ([3]; read-out: MIC Range): 2 to 32 µg/mL (≈ 5.47 to 87.5 µM)
- MIC50 ([3]; P. aeruginosa (CiproR), 20 isolates, read-out: MIC50): 4 µg/mL (≈ 10.9 µM)
- MIC90 ([3]; P. aeruginosa (CiproR), 20 isolates, read-out: MIC90): 8 µg/mL (≈ 21.9 µM)
- MIC [4]: 0.008 to 0.015 µg/mL (≈ 0.0219 to 0.041 µM)
- MIC50 [5]: 0.03 µg/mL (≈ 0.082 µM)
- MIC90 [5]: 0.03 µg/mL (≈ 0.082 µM)
- MIC ([5]; read-out: MIC Range): 0.03 to 0.12 µg/mL (≈ 0.082 to 0.328 µM)
- MIC ([6]; read-out: MIC Range): 0.12 to 1 µg/mL (≈ 0.328 to 2.73 µM)
- MIC50 ([6]; E. faecium (VanS), 11 isolates, read-out: MIC50): 0.5 µg/mL (≈ 1.37 µM)
- MIC90 ([6]; E. faecium (VanS), 11 isolates, read-out: MIC90): 1 µg/mL (≈ 2.73 µM)
- MIC50 ([7]; read-out: MIC50): 0.008 µg/mL (≈ 0.0219 µM)
- MIC90 ([7]; read-out: MIC90): 0.008 µg/mL (≈ 0.0219 µM)
- MIC ([7]; read-out: MIC Range): 0.004 to 0.008 µg/mL (≈ 0.0109 to 0.0219 µM)
- MIC90 ([8]; Providencia): 0.03 µg/mL (≈ 0.082 µM)
- MIC50 ([8]; Providencia spp., 28 isolates, read-out: MIC50): 0.015 µg/mL (≈ 0.041 µM)
- MIC ([8]; Providencia spp., 28 isolates, read-out: MIC Range): 0.008 to 0.12 µg/mL (≈ 0.0219 to 0.328 µM)
- MIC90 [9]: 0.5 µg/mL (≈ 1.37 µM)
- MIC ([9]; read-out: MIC Range): 0.06 to 0.5 µg/mL (≈ 0.164 to 1.37 µM)
- MIC50 ([9]; B. fragilis, 18 isolates, read-out: MIC50): 0.25 µg/mL (≈ 0.683 µM)
- MIC50 ([10]; read-out: MIC50): 1 µg/mL (≈ 2.73 µM)
- MIC90 ([10]; read-out: MIC90): 2 µg/mL (≈ 5.47 µM)
- MIC ([10]; read-out: MIC Range): 0.5 to 8 µg/mL (≈ 1.37 to 21.9 µM)
- MIC50 [11]: 0.06 µg/mL (≈ 0.164 µM)
- MIC90 [11]: 0.12 µg/mL (≈ 0.328 µM)
- MIC ([11]; read-out: MIC Range): 0.03 to 0.12 µg/mL (≈ 0.082 to 0.328 µM)
- MIC50 [12]: 0.03 µg/mL (≈ 0.082 µM)
- MIC90 [12]: 0.03 µg/mL (≈ 0.082 µM)
- MIC ([12]; S. epidermidis (CiproS), 23 isolates, read-out: MIC Range): 0.015 to 0.06 µg/mL (≈ 0.041 to 0.164 µM)
- MIC50 [13]: 0.03 µg/mL (≈ 0.082 µM)
- MIC90 [13]: 0.03 µg/mL (≈ 0.082 µM)
- MIC ([13]; S. aureus (CiproS), 21 isolates, read-out: MIC Range): 0.015 to 0.03 µg/mL (≈ 0.041 to 0.082 µM)
- MIC90 [14]: 0.25 µg/mL (≈ 0.683 µM)
- MIC ([14]; read-out: MIC Range): 0.12 to 0.25 µg/mL (≈ 0.328 to 0.683 µM)
- MIC50 ([14]; E. faecalis (VanS), 17 isolates, read-out: MIC50): 0.25 µg/mL (≈ 0.683 µM)
- MIC90 [15]: 32 µg/mL (≈ 87.5 µM)
- MIC50 ([15]; M. avium, 20 isolates, read-out: MIC50): 16 µg/mL (≈ 43.7 µM)
- MIC90 [16]: 0.25 µg/mL (≈ 0.683 µM)
- MIC ([16]; read-out: MIC Range): 0.06 to 0.25 µg/mL (≈ 0.164 to 0.683 µM)
- MIC50 ([16]; S. pneumoniae (PenR), 25 isolates, read-out: MIC50): 0.12 µg/mL (≈ 0.328 µM)
- MIC [17]: 2 to 8 µg/mL (≈ 5.47 to 21.9 µM)
- MIC [18]: 0.008 to 0.03 µg/mL (≈ 0.0219 to 0.082 µM)
- MIC50 ([18]; read-out: MIC50): 0.015 µg/mL (≈ 0.041 µM)
- MIC90 ([18]; read-out: MIC90): 0.015 µg/mL (≈ 0.041 µM)
- MIC [19]: 0.004 to 0.25 µg/mL (≈ 0.0109 to 0.683 µM)
- MIC50 ([19]; read-out: MIC50): 0.015 µg/mL (≈ 0.041 µM)
- MIC90 ([19]; read-out: MIC90): 0.03 µg/mL (≈ 0.082 µM)
- MIC90 [20]: 0.03 µg/mL (≈ 0.082 µM)
- MIC50 ([20]; H. pylori, 17 isolates, read-out: MIC50): 0.015 µg/mL (≈ 0.041 µM)
- MIC ([20]; H. pylori, 17 isolates, read-out: MIC Range): 0.008 to 0.03 µg/mL (≈ 0.0219 to 0.082 µM)
- MIC50 ([21]; Klebsiella): 0.03 µg/mL (≈ 0.082 µM)
- MIC90 ([21]; Klebsiella): 0.03 µg/mL (≈ 0.082 µM)
- MIC ([21]; Klebsiella spp., 29 isolates, read-out: MIC Range): 0.004 to 0.12 µg/mL (≈ 0.0109 to 0.328 µM)
- MIC [22]: 0.12 µg/mL (≈ 0.328 µM)
- MIC50 [23]: 0.12 µg/mL (≈ 0.328 µM)
- MIC90 ([23]; C. perfringens, 13 isolates): 0.12 µg/mL (≈ 0.328 µM)
- MIC ([23]; read-out: MIC Range): 0.06 to 0.12 µg/mL (≈ 0.164 to 0.328 µM)
- MIC90 [24]: 0.5 µg/mL (≈ 1.37 µM)
- MIC50 ([24]; P. aeruginosa (CiproS), 24 isolates, read-out: MIC50): 0.12 µg/mL (≈ 0.328 µM)
- MIC ([24]; P. aeruginosa (CiproS), 24 isolates, read-out: MIC Range): 0.015 to 0.5 µg/mL (≈ 0.041 to 1.37 µM)
- MIC50 [25]: 0.03 µg/mL (≈ 0.082 µM)
- MIC90 [25]: 0.06 µg/mL (≈ 0.164 µM)
- MIC ([25]; P. mirabilis, 20 isolates, read-out: MIC Range): 0.03 to 0.06 µg/mL (≈ 0.082 to 0.164 µM)
- MIC50 [26]: 0.03 µg/mL (≈ 0.082 µM)
- MIC90 [26]: 0.12 µg/mL (≈ 0.328 µM)
- MIC ([26]; read-out: MIC Range): 0.015 to 0.12 µg/mL (≈ 0.041 to 0.328 µM)
- MIC50 ([27]; read-out: MIC50): 1 µg/mL (≈ 2.73 µM)
- MIC90 ([27]; read-out: MIC90): 2 µg/mL (≈ 5.47 µM)
- MIC ([27]; read-out: MIC Range): 0.12 to 8 µg/mL (≈ 0.328 to 21.9 µM)
- MIC [28]: 0.015 to 0.03 µg/mL (≈ 0.041 to 0.082 µM)
- MIC50 ([29]; read-out: MIC50): 0.5 µg/mL (≈ 1.37 µM)
- MIC90 ([29]; read-out: MIC90): 1 µg/mL (≈ 2.73 µM)
- MIC ([29]; read-out: MIC Range): 0.25 to 2 µg/mL (≈ 0.683 to 5.47 µM)
